Experimental data: paper doi:10.1101/2025.06.09.658245v1 (biorxiv, 2025)

What was measured:
in vitro [1] = details: mouse, liver microsomes
in vitro [2] = details: mouse, liver microsomes; remark: listed apart in the source
hERG [3] = target: T1, hERG (Homo sapiens, UniProt Q12809); test: in vitro; details: HEK
hALOX12B = target: T2, hALOX12B (Homo sapiens, UniProt O75342); test: biochemical; details: read-out: % inhibition of ALOX12B enzyme activity
T2 sequence (O75342 1-701): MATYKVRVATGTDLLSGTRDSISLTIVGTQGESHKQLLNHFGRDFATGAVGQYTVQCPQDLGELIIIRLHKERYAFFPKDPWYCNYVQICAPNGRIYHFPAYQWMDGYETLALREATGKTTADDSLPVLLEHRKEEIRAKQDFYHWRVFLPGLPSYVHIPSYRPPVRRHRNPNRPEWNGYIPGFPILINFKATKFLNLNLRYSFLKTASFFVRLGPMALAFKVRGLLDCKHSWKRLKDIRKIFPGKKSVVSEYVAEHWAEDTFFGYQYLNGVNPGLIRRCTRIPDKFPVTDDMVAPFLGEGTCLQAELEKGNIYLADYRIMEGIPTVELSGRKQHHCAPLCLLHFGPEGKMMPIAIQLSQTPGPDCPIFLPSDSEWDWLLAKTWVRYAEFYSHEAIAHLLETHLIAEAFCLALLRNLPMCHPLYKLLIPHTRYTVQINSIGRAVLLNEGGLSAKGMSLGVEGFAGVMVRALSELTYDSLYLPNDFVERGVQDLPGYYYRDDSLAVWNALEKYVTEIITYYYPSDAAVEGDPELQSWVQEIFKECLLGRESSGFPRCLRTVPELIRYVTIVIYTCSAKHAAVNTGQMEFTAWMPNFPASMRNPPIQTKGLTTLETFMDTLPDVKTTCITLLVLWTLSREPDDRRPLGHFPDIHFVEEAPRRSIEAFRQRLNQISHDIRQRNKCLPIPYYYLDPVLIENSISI

hERG [4] = target: T1, hERG; test: in vitro; details: HEK; remark: listed apart in the source
hERG [5] = target: T1, hERG; test: whole-cell patch clamp, IKr current; assay type: cell-based; details: test concentrations 0.3 to 30 µM; HEK cells stably transfected

T1 sequence (Q12809 whole entry): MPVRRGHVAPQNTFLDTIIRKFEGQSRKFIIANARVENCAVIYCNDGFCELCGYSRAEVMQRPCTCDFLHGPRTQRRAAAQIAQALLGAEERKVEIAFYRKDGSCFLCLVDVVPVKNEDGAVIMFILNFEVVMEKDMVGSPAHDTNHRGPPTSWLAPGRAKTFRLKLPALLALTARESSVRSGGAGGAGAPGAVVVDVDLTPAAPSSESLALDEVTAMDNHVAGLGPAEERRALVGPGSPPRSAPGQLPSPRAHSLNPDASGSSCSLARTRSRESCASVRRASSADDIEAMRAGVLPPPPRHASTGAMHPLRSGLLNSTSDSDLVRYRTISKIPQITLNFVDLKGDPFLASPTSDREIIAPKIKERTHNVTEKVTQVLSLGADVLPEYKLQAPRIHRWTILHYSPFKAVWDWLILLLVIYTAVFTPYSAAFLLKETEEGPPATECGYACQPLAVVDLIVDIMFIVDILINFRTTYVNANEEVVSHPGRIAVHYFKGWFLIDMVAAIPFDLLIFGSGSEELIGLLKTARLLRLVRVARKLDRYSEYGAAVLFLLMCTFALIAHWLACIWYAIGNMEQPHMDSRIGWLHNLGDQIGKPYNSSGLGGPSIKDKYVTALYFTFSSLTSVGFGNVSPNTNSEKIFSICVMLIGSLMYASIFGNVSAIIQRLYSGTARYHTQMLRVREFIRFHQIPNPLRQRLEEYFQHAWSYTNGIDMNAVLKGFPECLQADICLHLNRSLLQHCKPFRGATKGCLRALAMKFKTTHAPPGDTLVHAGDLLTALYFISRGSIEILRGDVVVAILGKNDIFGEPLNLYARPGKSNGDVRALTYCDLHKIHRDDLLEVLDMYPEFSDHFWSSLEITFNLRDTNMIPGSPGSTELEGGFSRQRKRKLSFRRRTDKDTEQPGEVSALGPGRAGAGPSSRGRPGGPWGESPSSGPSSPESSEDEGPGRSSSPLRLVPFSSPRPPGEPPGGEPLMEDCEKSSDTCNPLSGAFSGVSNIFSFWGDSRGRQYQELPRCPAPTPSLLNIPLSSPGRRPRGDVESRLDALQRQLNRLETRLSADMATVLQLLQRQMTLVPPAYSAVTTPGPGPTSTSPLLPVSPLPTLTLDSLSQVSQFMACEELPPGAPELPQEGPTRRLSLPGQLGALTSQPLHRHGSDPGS

Row | half-life at 5 µM (in vitro [1]) [h] | microsomal CLint at 5 µM (in vitro [2]) [µL/min/mg] | inhibition at 10 µM (hALOX12B) [%] | inhibition at 100 µM (hALOX12B) [%] | inhibition at 200 µM (hALOX12B) [%] | Structure (SMILES) | inhibition at 0.1 µM (hERG [3]) [%] | inhibition at 0.3 µM (hERG [4]) [%] | inhibition at 1 µM (hERG [4]) [%] | inhibition at 3 µM (hERG [4]) [%] | inhibition at 10 µM (hERG [4]) [%] | inhibition at 30 µM (hERG [4]) [%] | % reduction of hERG current at 0.3 to 30 μM (hERG [5])
1 | 8.25 | 5.6 | ~23 | ~40 | ~52 | Nc1ccc(O)cc1-c1cc(=O)c2ccccc2o1 [6a, 2-(2-amino-5-hydroxyphenyl)-4H-chromen-4-one] | -8.53 | 13.3 | 14.1 | 10.6 | 10.9 | 9.05 | –
2 | – | – | – | – | – | Nc1ccc(O)cc1-c1cc(=O)c2ccccc2o1 [6a] | – | – | – | – | – | – | 9-14%
